Results published in patent US11850266B2, “Cardiomyocytes and compositions and methods for producing the same” (President and Fellows of Harvard College, priority 2019, dated 2023).

Assays:
Type in all cases: cell-based, human
[1] = tested on: TNNT2+ iPSC-derived cardiomyocytes; assay: Cell cycle analysis by flow cytometry (Hoechst 33342 / pyronin Y) of TNNT2+ cardiomyocytes
Experimental: (§1) To prepare for differentiation, iPSCs were plated at a density between 20,000 to 80,000 cells (depending on the cell line) per well of a 12-well plate at four days prior to onset of differentiation. Cells were differentiated according to the protocol previously described by Lian et al. with some modifications (FIG. 1A) (1). Basal media was changed from StemFlex to RPMI/B27 on day 0 of differentiation. The GSK3 inhibitor, CHIR99021 (6 μM), was added for 48 hours from day 0 to day 2 of differentiation when cells were approximately 70-80% confluent. The Wnt antagonist IWP4 (5 μM) was added from days 2 to 4 of differentiation. Insulin (10 μg/ml) was added to the media starting on day 7 of differentiation, and media was changed every 2-3 days. In general, higher purity (TNNT2+) cardiomyocytes were observed when beating initiated prior to day 10 of differentiation, therefore only batches with onset of beating between days 7-10 of differentiation were included in this study. Beating cardiomyocytes were treated with Torin1 (200 nM, unless otherwise noted) or vehicle (0.02% dimethylsulfoxide (DMSO)) beginning at ˜2 days after onset of beating for 7 days (media changed with fresh Torin1 or DMSO every 2-3 days), unless otherwise noted. After Torin1 treatment, media was switched back to RPMI/B27/insulin and maintained with media change every 2-3 days until endpoint assay. In a few assays, fatty acids were added in the form of chemically defined lipids (Gibco) diluted 1:1000 simultaneous with Torin1 treatment. In some other assays, fetal bovine serum (10% FBS) was added to cells after completion of Torin treatment for 2-4 days.
(§2) Cells were dissociated and 5×10^5 to 1×10^6 cells were used per condition. For cell cycle analysis, 5×10^5 cells per condition were fixed in 70% cold ethanol for at least 2 hours to overnight at −20 degrees C. Cells were stained first with AlexaFluor 647-TNNT2 in Permeabilization Buffer (Thermo) then with Hoechst 33342 (2 μg/ml) and pyronin Y (4 μg/ml) for 20 minutes to distinguish between cells in G0, G1, and S-G2-M phases. For other stains, cells were fixed in eBioscience Intracellular Fixation buffer for 30 minutes followed washing twice in eBioscience Permeabilization Buffer and stained with the appropriate primary antibody (Table 2) in eBioscience FACS Staining buffer for 30-60 minutes. If a secondary antibody was used, cells were incubated with the appropriate secondary antibody (Table 2) for 30-60 minutes. The geometric mean fluorescence intensity (MFI) was quantified for TNNT2 and Kir2.1 antibodies. Data were acquired via a BD LSRII instrument and analyzed using FlowJo software.

[2] = tested on: iPSC-derived cardiomyocytes; assay: Imaging quantification of proliferating cardiomyocytes (Ki67, phospho-histone H3); settings: versus control, non-dissociated cells, FIG. 8
Text: Cardiomyocytes were differentiated in 12 well plates then fixed and stained in the original plates to minimize potential for selection of cells that survive dissociation. Cells were stained with Ki67/TNNT2/DAPI or phospho-H3/TNNT2/DAPI as described in Immunostaining methods. Images were acquired with a fluorescent microscope. Monolayer regions containing TNNT2+ cells were randomly selected from 5 fields of view in the plate with a 10× objective. The particle analysis feature of ImageJ was used to quantify the number of cells per field of view that were positive for DAPI, Ki67, or pH3. To control for variability across samples, a signal threshold of <500 was set DAPI and pH3 (488 nm) channels and a signal threshold of <600 was set for Ki67 ([…]). Particle sizes between 10-1000 pixels^2 were included in the analysis. The percentage of Ki67+ cells or pH3+ cells out of the total number of cells marked by DAPI and TNNT2 was quantified. A chi-squared test was used to evaluate for statistical significance.

[3] = tested on: iPSC-derived cardiomyocytes; assay: Flow cytometry (TNNT2+ purity, MFI of TNNT2 and Kir2.1) and cell counts
Experimental: as §1, §2

CCC(=O)N1CCN(c2ccc(-n3c(=O)ccc4cnc5ccc(-c6cnc7ccccc7c6)cc5c43)cc2C(F)(F)F)CC1 [Torin1]
percentage of Torin1-treated cells in G0 after 10% FBS ([1]; 10% FBS 48 hours starting two days after completion of Torin1, FIG. 1I): significant decrease
quiescent (G0) cells ([1]; Torin1 200 nM 1 week, vehicle control 24%, FIG. 1G): 48%
G1 cells ([1]; Torin1 200 nM 1 week, vehicle control 47%, FIG. 1G): 27%
percentage of quiescent (G0) TNNT2+ cardiomyocytes versus control ([1]; nutlin-3a 10 μM 24 hours, Torin1 200 nM 7 days, or both, BJRiPS-CMs, FIG. 6B): increased the percentage of quiescent (G0) TNNT2+ cardiomyocytes
percentage of TNNT2+ cardiomyocytes in G1 phase versus control ([1]; nutlin-3a 10 μM 24 hours, Torin1 200 nM 7 days, or both, FIG. 6B): decreased the percentage of TNNT2+ cardiomyocytes in G1 phase
percentage of Ki67+ cardiomyocytes [2]: significantly decreased
percentage of pH3+ cardiomyocytes [2]: did not change
Torin1-induced increase in TNNT2 MFI after 10% FBS ([3]; 10% FBS 2 days after completion of Torin1, UCSD-CMs, FIG. 2I): reversed
TNNT2 MFI with shorter (5 days) or later (starting 10 days after initiation of beating) treatment ([3]; FIGS. 10, 11): beneficial effects on TNNT2 MFI
MFI of extracellular Kir2.1 by flow cytometry ([3]; Torin1 7 days, BJRiPS, FIG. 4B): significantly increased
TNNT2 MFI by flow cytometry ([3]; Torin1 7 days, Gibco iPS-CMs, FIG. 2C): dose-dependent increase
absolute numbers of cells per well ([3]; Torin1 from day 9, 12 well plate, BJRiPS-CMs, FIG. 1C): non-significant trend toward decreased absolute numbers of cells per well
purity of TNNT2+ cells ([3]; non-significant trend, Gibco iPS-CMs, FIG. 1D): increased purity of TNNT2+ cells
TNNT2 protein by mean fluorescence intensity (flow cytometry) ([3]; three cell lines (BJRiPS, GCaMP, Gibco), FIG. 18E): significant increase in protein expression of TNNT2
